Data on eleven molecules can be found in PubChem BioAssay (NCI).

Among the test systems are SF-268 CNS; NCI-H226 lung; UO-31 renal; KM12 colon; 786-0 renal; NCI-H460 lung; SF-539 CNS; MALME-3M melanoma; HL-60(TB) leukemia; SNB-19 CNS.
Common to all, as to test: inhibition of tumour cell growth, NCI panel, 48 h

Each structure is given as a SMILES string.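 1) Cells in 96-well plates. 2) Compound, 48 h, 5 concentrations. 3) Linear interpolation between surrounding doses. 4) Unreached endpoint = highest concentration. The concentration for 50% growth inhibition is given as GI50. TGI: concentration producing complete growth inhibition.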

As for `N#C/C(=C/C=C/c1ccco1)C(N)=O`, the TGI with SF-268 CNS, in the assay with NCI-H226 lung, in the assay on UO-31 renal, in the assay on KM12 colon, with 786-0 renal and in the assay on NCI-H460 lung was over 10 µM in each case. Also, the TGI with SF-539 CNS and in the assay with MALME-3M melanoma was over 10 µM throughout.

With `C=C(C)[C@@H]1CCC=C2CC[C@]3(C)[C@H](CC[C@@H]4[C@@]5(C)CCCNC(C)(C)[C@@H]5CC[C@]43C)[C@H]21`, the GI50 with SF-268 CNS was 2.77 µM; in the assay on NCI-H226 lung, 2.8 µM; in the assay with UO-31 renal, 1.53 µM; in the assay on 786-0 renal it was 1.68 µM; with NCI-H460 lung, 1.93 µM; in the assay on HL-60(TB) leukemia, 1.58 µM. For the same molecule, the values for the GI50 in the assay on SF-539 CNS and with MALME-3M melanoma were 1.89 µM and 1.77 µM, respectively. Besides, the TGI was found to be 8.53 µM in the assay with SF-268 CNS; 9.14 µM with NCI-H226 lung; 2.99 µM in the assay on UO-31 renal; 3.04 µM in the assay with 786-0 renal; 3.73 µM in the assay with NCI-H460 lung; 3.57 µM with HL-60(TB) leukemia. Moreover, the figures for the TGI with SF-539 CNS and in the assay on MALME-3M melanoma were 3.58 µM and 3.74 µM, respectively.

For `CCOC(=O)NC(=O)c1cn(CCN2CCN(C(=O)CNC(=O)CNC(=O)Cn3cc(C(=O)NC(=O)OCC)c(=O)[nH]c3=O)CC2)c(=O)[nH]c1=O`, the TGI with SF-268 CNS, in the assay on UO-31 renal, with SNB-19 CNS, in the assay with KM12 colon, in the assay with 786-0 renal and with NCI-H460 lung was over 100 µM in each case. Moreover, the TGI in the assay on HL-60(TB) leukemia, with SF-539 CNS and in the assay on MALME-3M melanoma was over 100 µM in each case.

Regarding `O=C(O)C(Cc1cnc[nH]1)N1C(=O)c2ccccc2C1=O` (configuration not stated), the TGI in the assay on SF-268 CNS, in the assay on NCI-H226 lung, in the assay with UO-31 renal, with SNB-19 CNS, in the assay with KM12 colon and in the assay with 786-0 renal was over 100 µM throughout. Also, the TGI in the assay with NCI-H460 lung and in the assay with MALME-3M melanoma was over 100 µM throughout.

With `CNC(=O)NCC1OC(n2cnc3c(NC(=O)Nc4ccccc4)ncnc32)C(O[Si](C)(C)C(C)(C)C)C1O[Si](C)(C)C(C)(C)C` (configuration not stated), the GI50 in the assay on SF-268 CNS is 3.58 µM; in the assay on NCI-H226 lung, 3.1 µM; with UO-31 renal, 2.5 µM; with SNB-19 CNS, 4.57 µM; in the assay on KM12 colon it was 2.13 µM; in the assay with 786-0 renal, 2.04 µM. Also, the results for the GI50 with NCI-H460 lung, with SF-539 CNS and in the assay with MALME-3M melanoma were 1.72 µM, 3.07 µM and 2.98 µM, respectively. In addition, the TGI in the assay with SF-268 CNS was 14 µM; in the assay on NCI-H226 lung it was 8.63 µM; in the assay with UO-31 renal it was 9.56 µM; in the assay with SNB-19 CNS, over 100 µM; with KM12 colon, 4.14 µM; in the assay with 786-0 renal, 3.71 µM. Moreover, the TGI is 3.49 µM in the assay on NCI-H460 lung, 13 µM in the assay with SF-539 CNS and 9.84 µM with MALME-3M melanoma.

Regarding `C=CC(=O)N1C/C(=C\c2ccc(Cl)c(Cl)c2)C(=O)/C(=C/c2ccc(Cl)c(Cl)c2)C1`, the TGI came out at 0.298 µM with SF-268 CNS; 2.73 µM in the assay on NCI-H226 lung; 0.528 µM in the assay on UO-31 renal; 0.642 µM in the assay on KM12 colon; 0.194 µM in the assay with 786-0 renal; 0.298 µM with NCI-H460 lung. The molecule also returned a TGI with SF-539 CNS of 0.367 µM.

`CCCn1c2c(c3c(O)cccc31)C(=O)c1ccccc1-2`: the GI50 is 19.5 µM in the assay with SF-268 CNS; 28.3 µM in the assay with NCI-H226 lung; 22.8 µM in the assay with UO-31 renal; 25.5 µM in the assay with SNB-19 CNS; 14.6 µM with 786-0 renal; 22.1 µM in the assay with NCI-H460 lung. The GI50 in the assay on MALME-3M melanoma is 64.6 µM. Moreover, the TGI in the assay with SF-268 CNS is over 100 µM; with NCI-H226 lung it was over 100 µM; in the assay on UO-31 renal, over 100 µM; in the assay with SNB-19 CNS it was over 100 µM; in the assay on 786-0 renal, 52.2 µM; with NCI-H460 lung, over 100 µM. For the same molecule, in the assay on MALME-3M melanoma, the TGI is over 100 µM.

Regarding `COc1cc2c(cc1OC)-c1ncc3c(OC)ccc(OC)c3c1C2`, the GI50 in the assay on UO-31 renal was 18.3 µM; in the assay with SNB-19 CNS, 42.3 µM; in the assay with KM12 colon, 16.5 µM; in the assay with 786-0 renal it was 49.2 µM; with NCI-H460 lung it was 20.9 µM; with SF-539 CNS, 14 µM. The TGI in the assay with UO-31 renal was 60 µM; in the assay on SNB-19 CNS it was over 100 µM; in the assay with KM12 colon, 83.7 µM; in the assay with 786-0 renal, over 100 µM; in the assay on NCI-H460 lung, over 100 µM; with SF-539 CNS it was 33.4 µM.

For `Cc1ccc(/C=C(\C#N)c2cc3ccccc3n2C)cc1`, the GI50 was 8.27 µM in the assay on SF-268 CNS; 1.45 µM in the assay with NCI-H226 lung; 0.853 µM with UO-31 renal; 0.414 µM with SNB-19 CNS; 0.428 µM in the assay with KM12 colon; 0.709 µM with 786-0 renal. For the same molecule, the GI50 in the assay with NCI-H460 lung was 0.361 µM; in the assay on HL-60(TB) leukemia, 0.277 µM; in the assay on SF-539 CNS, 0.294 µM. The TGI in the assay with SF-268 CNS, with NCI-H226 lung, in the assay on UO-31 renal, in the assay with SNB-19 CNS, with KM12 colon and in the assay on 786-0 renal was over 100 µM throughout. For the same molecule, the results for the TGI with NCI-H460 lung, in the assay on HL-60(TB) leukemia and in the assay with SF-539 CNS were over 100 µM, 2.56 µM and 1.02 µM, respectively.

Regarding `O=C(Oc1cccc(Cl)c1)c1ccccc1Nc1ccnc(C(F)(F)F)c1`, the GI50 in the assay on SF-268 CNS is 3.03 µM; with NCI-H226 lung, 2.15 µM; in the assay with UO-31 renal, 23.5 µM; in the assay on KM12 colon, 9.53 µM; in the assay with 786-0 renal, 3.53 µM; in the assay with NCI-H460 lung it was 11.2 µM. Besides, the GI50 in the assay with HL-60(TB) leukemia was 12.8 µM; in the assay with SF-539 CNS it was 2.79 µM. Also, the TGI in the assay with SF-268 CNS is 10.8 µM; with NCI-H226 lung it was 8.89 µM; with UO-31 renal, over 100 µM; in the assay with KM12 colon it was 41.4 µM; in the assay on 786-0 renal, 11.4 µM; with NCI-H460 lung, 43.7 µM. Besides, the TGI is over 100 µM in the assay on HL-60(TB) leukemia and 7.24 µM in the assay on SF-539 CNS.

Take `CC1=CC2C(C(O)CC3(C)C2CC(C)C32OCOC23COCO3)C2(C)C/C(=C/O)C(=O)C=C12` (configuration not stated): the GI50 was 2.03 µM with SF-268 CNS; 1.52 µM in the assay with UO-31 renal; 3.22 µM in the assay on SNB-19 CNS; 2.39 µM in the assay on KM12 colon; 1.83 µM in the assay on 786-0 renal; 2.1 µM with HL-60(TB) leukemia. Further, the GI50 was 1.93 µM in the assay on SF-539 CNS and 1.84 µM in the assay with MALME-3M melanoma. Moreover, the TGI turned out to be 3.84 µM with SF-268 CNS; 3.04 µM in the assay on UO-31 renal; 12 µM with SNB-19 CNS; 4.77 µM in the assay with KM12 colon; 3.55 µM in the assay on 786-0 renal; 4.63 µM with HL-60(TB) leukemia. For the same molecule, the TGI turned out to be 3.64 µM with SF-539 CNS and 3.58 µM in the assay with MALME-3M melanoma.
